Laboratory results published in patent US20230390276A1, “TREATMENT OF AUTOIMMUNE DISEASES WITH A DIHYDROOROTATE HEHYDROGENASE (DHODH) INHIBITOR” (Aslan Pharmaceuticals Pte. Ltd., priority 2020, published 2023).

Assays:
[1] = system: multiple sclerosis experimental autoimmune encephalomyelitis (EAE) model; test: EAE model of multiple sclerosis, clinical score (Example 1); type: in vivo; conditions: oral 1, 3, 10 or 15 mg/kg per day from Day 8 after disease induction
Text: Experimental autoimmune encephalomyelitis (EAE) is a well-studied animal model of demyelinating diseases, such as human multiple sclerosis (MS). EAE is induced by injecting susceptible animals with purified myelin components, central nervous system (CNS) extract, or synthesized specific peptides emulsified in an adjuvant. The peptides are for example derived from myelin basic protein (MBP), myelin oligodendrocyte glycoprotein (MOG) or proteolipid protein (PLP). To investigate the effect of ASLAN003 on multiple sclerosis, ASLAN003 was administered orally to the EAE model at doses of 1 mg/kg, 3 mg/kg, 10 mg/kg or 15 mg/kg per day, starting from Day 8 after disease induction. A vehicle control was included.

[2] = system: EAE Lewis rat model; test: EAE Lewis rat model, clinical score AUC (Example 2); type: in vivo, Male Lewis rats
Experimental: For the induction of EAE, guinea pig myelin basic protein (MBP) (Sigma, M2295) suspended in 0.9% saline solution at a concentration of 2 mg/ml was used. The solution was emulsified with an equal volume of Freund's complete adjuvant (Sigma, F5881) containing 4 mg/ml of heat-inactivated Mycobacterium tuberculosis H37Ra (Difeo Laboratories, Ref. 231141). Male Lewis rats were immunized with 0.1 ml of emulsion by subcutaneous injection into the right and left hind footpads with the emulsion containing MBP at 100 μg/rat.
Individual animals were examined daily for clinical signs of neurological deficits scored on a 0 to 5 scale, as follows:
Clinical signs of the disease were observed on day 8-9 after induction.
As disease progressed, animals with a score of 4 were sacrificed if disability indicated little chance of recovery, in accordance with animal welfare standards. Mortality due to sacrifice or spontaneous EAE-related death was recorded as a 5 on the given day. This death score continued to be included in the clinical assessment, but no body weight measurements could be carried forward.
LAS 186323 (ASLAN003), positive control T and positive control F were freshly prepared every day and suspended in 0.5% Methylcellulose and 0.1% Tween 80 in water, at the specified doses and administered by oral gavage in a volume of 10 ml/kg.
Evaluation of disability was performed on a daily basis and a clinical score given to each animal, as described. The area under the curve (AUC) of the clinical score was generated for each animal from the data recorded along the experiment. The percentage of inhibition of the AUC was calculated for every animal versus the mean of the AUC of the vehicle group. The mean percentage of inhibition per treatment and dose was calculated.

[3] = system: EAE Lewis rat model; test: Histology of the CNS in EAE rats; type: in vivo, Male Lewis rats; conditions: highest doses tested; compared to vehicle-treated animals
Experimental: At the end of the experiment, animals were killed by exsanguination and necropsies were performed in a blind manner. The spinal cords (CNS; spinal cord, medulla oblonga, cerebellum) of EAE animals were obtained, fixed in 4% formalin in PBS, and embedded in paraffin. Six μm-thickness sections were prepared and then stained with hematoxylin and eosin. The histological score was evaluated as follows: • 0: no lesions; • 1: solitary lesions with cell infiltrates of low cellular density in the entire section; • 2: a few lesions with moderate cell infiltration in each of a few fields; • 3: many lesions in almost all fields with massive cell infiltration and accompanying edema (Kataoka, 2005).

[4] = Haematological cell count in EAE rats; type: in vivo, Male Lewis rats; conditions: for number of neutrophils: 24 hours after last administration, no statistically significant difference versus vehicle
Experimental: At the end of the assay, 24 h after last administration, blood samples from the retro-orbital plexus were obtained from all animals under light anaesthesia. Samples were used to determine complete blood cell count (XT-2000i/XT-1800i, Sysmex Corporation). Absolute values were reported for all cell types.

[5] = system: rheumatoid arthritis (RA) Adjuvant-Induced Arthritis (AIA) model; test: Adjuvant-induced arthritis (AIA) model, paw inflammation AUC; type: in vivo, Male Wistar rats; conditions: for % Inhibition of the AUC (mean ± SEM): vs mean of vehicle
[6] = WBC and platelet counts in AIA model; type: in vivo, Male Wistar rats; conditions: arthritic rats, 24 hrs after last administration
Experimental: Rats were administered the CFA suspension every day in the morning for 10 consecutive days. Body weight was measured every day and paw volumes every other day. On day 11 post-treatment (24 hrs after last administration), the rats were anesthetised, blood samples were collected from their retroorbital plexus to determine cell counts, and then sacrificed. Hind paws were excised to perform X-ray analysis and a score of radiological damage was performed by a scientist unaware in a blind manner.

[7] = system: rheumatoid arthritis (RA) Adjuvant-Induced Arthritis (AIA) model; test: X-ray (radiological) score of paws in AIA model; type: in vivo, Male Wistar rats; conditions: 3 mg/kg; 2 to 3 independent experiments
Experimental: Rats were administered the CFA suspension every day in the morning for 10 consecutive days. Body weight was measured every day and paw volumes every other day. On day 11 post-treatment (24 hrs after last administration), the rats were anesthetised, blood samples were collected from their retroorbital plexus to determine cell counts, and then sacrificed. Hind paws were excised to perform X-ray analysis and a score of radiological damage was performed by a scientist unaware in a blind manner. The radiological score is a composite of 5 different parameters evaluated from the X-ray images of every individual paw. The 5 parameters are: bone demineralisation, periostitis, narrowing of the joint space, cystic degeneration, and inflammation of the soft tissues. For each parameter, a value of 0-4 was assigned, which is proportional to the severity observed. The sum of the scores of the 5 parameters provides the radiological score for each animal. The effect of a treatment on the inhibition of the radiological score was measured by calculating the % inhibition of the radiological score of every animal belonging to a treatment group vs the mean of the vehicle treated group. In the case where several experiments were conducted, the values provided are the mean of the individual experiments and the SEM.

[8] = system: DSS induced IBD model; test: Dextran sulfate sodium (DSS) induced inflammatory bowel disease (IBD) mouse model; type: in vivo, Male C57BL/6 mice
Experimental: Male C57BL/6 mice aged 6-7 weeks were procured from Shanghai Lingchang Bio Tech Co. Ltd, China. Animals were randomized into groups based on the body weight: • Group 01: Purified water, ad libitum, Day 1-8; Vehicle, 5 mL/kg, P0, QD, Day 0-9, n=6 • Group 02: 3% DSS in water, ad libitum, Day 1-8; Vehicle, 5 mL/kg, P0, QD, Day 0-9, n=8 • Group 03: 3% DSS in water, ad libitum, Day 1-8; positive control V, 20 mg/kg, P0, QD, Day 0-9, n=8 • Group 04: 3% DSS in water, ad libitum, Day 1-8; ASLAN003, low dose, P0, QD, Day 0-9, n=8a • Group 05: 3% DSS in water, ad libitum, Day 1-8; ASLAN003, high dose, P0, QD, Day 0-9, n=8 • Abbreviations: QD=Once daily; PO=Oral gavage. • Study duration: 3 weeks of acclimation phase, and 10 days of treatment phase starting from Day 0 (Day 0-10). • Colitis model induction: To induce acute experimental colitis, mice in Groups 02-05 were provided ad libitum access to 3% DSS in purified water for 7 days (Day 1-7), followed by purified water for 2 days (Day 9-10). The drinking water containing DSS was changed once in two days. Mice in Group 01 was kept on purified water as a control, during Day 1-7. • In-life parameters measured: • Water and food consumption was monitored once daily during Day 0-10. • Body weight was measured once daily during Day 0-10, with twice daily clinical monitoring. • Stool observation as conducted once daily during Day 0-10. A disease activity index (DAI) was determined to quantify induction of colitis. • Intestinal permeability was assessed on Days 0 and 9. • Faeces was collected for lipocalin-2 detection on Days 0, 4, 8 and 10. • Study Termination: The mice were sacrificed on Day 10, and the following was performed on the sacrificed animals: • The entire colon (from caecum to anus) was collected and its length from ileocecal valve to anus was measured. • One photo of the entire colon for each mouse was taken. • The colon was opened along the mesenteric border, rinsed with saline, blotted dry and its weight was measured. • The colon was processed as ‘spiral Swiss Rolls’, fixed in 10% neutral-buffered formalin for 24-48 hours, and embedded in paraffin (one block per mouse) for hematoxylin-eosin (H&E) staining and histopathological evaluation. • The spleen was dissected, its tissue weight measured and recorded, and then discarded.

COc1cccc(-c2cc(F)c(Nc3ncccc3C(=O)O)c(F)c2)c1 [ASLAN003, 2-(3,5-difluoro-3′-methoxybiphenyl-4-ylamino) nicotinic acid]
clinical score compared to the vehicle control [1]: significantly reduced clinical score
% AUC inhibition Mean (SEM) of clinical score ([2]; 1 mg/kg oral daily): 41.1 (13.34) %
% AUC inhibition Mean (SEM) of clinical score ([2]; 3 mg/kg oral daily): 44.4 (10.79) %
% AUC inhibition Mean (SEM) of clinical score ([2]; 10 mg/kg oral daily): 65.1 (9.02) %
% AUC inhibition Mean (SEM) of clinical score ([2]; 15 mg/kg oral daily): 84.4 (4.94) %
ED50 (clinical score AUC inhibition) ([2]; calculated by linear regression): 2.7 mg/kg/day
CNS histological score (microscopic CNS lesions) [3]: profound improvement in the microscopic CNS lesions
number of neutrophils ([4]; 10 mg/kg): not at 10 mg/kg
number of neutrophils ([4]; 3 and 15 mg/kg): reduction in the number of neutrophils
blood cell count ([4]; once a day oral, 1-15 mg/kg): did not have a significant effect
AUC of right paw inflammation (mean ± SEM) ([5]; 1 mg/kg oral daily, 2 to 5 independent experiments): 9.11 ± 3.14
% Inhibition of the AUC (mean ± SEM) ([5]; 1 mg/kg oral daily): 32.76 ± 22.8%
% Inhibition of the AUC (mean ± SEM) ([5]; 3 mg/kg oral daily): 53.09 ± 2.4%
% Inhibition of the AUC (mean ± SEM) ([5]; 10 mg/kg oral daily): 64.49 ± 4.6%
ED50 ([5]; Rattus norvegicus, from 2 to 5 independent experiments, read-out: ED50 (mean % reduction in paw volume)): 4.6 mg/kg
Platelets ([6]; 1 mg/kg): 1418 ± 180 ×10^3/μl
White blood cells ([6]; 1 mg/kg): 20.6 ± 0 ×10^3/μl
Platelets ([6]; 3 mg/kg): 1180 ± 45.9 ×10^3/μl
White blood cells ([6]; 3 mg/kg): 16.2 ± 0.86 ×10^3/μl
X-ray score (mean ± SEM) [7]: 2.16 ± 0.25
stool consistency ([8]; 75 mg/kg PO QD (group 5), Days 2 to 9): best overall stool consistency
spleen weight ([8]; 75 mg/kg PO QD (group 5), end of study): most similar to the control group 1
Disease Activity Index (DAI) ([8]; 75 mg/kg PO QD (group 5), over the 10 days): lower overall increase in DAI
bloody stools ([8]; 75 mg/kg PO QD (group 5), over the course of the study): lowest incidence of bloody stools
colon weight/length ([8]; 25 and 75 mg/kg PO QD (groups 4 and 5), end of study, vs Vehicle group 2): fairly similar
lipocalin in faeces (intestinal inflammation) ([8]; 25 and 75 mg/kg PO QD (groups 4 and 5), vs vehicle treated group 2): less intestinal inflammation
loss in body weight ([8]; 25 and 75 mg/kg PO QD Day 0-9 (groups 4 and 5), vs DSS induced vehicle group 2): similar
